# In patent US20120277257A1, “Methods of Treating Diseases, Pharmaceutical Compositions, and Pharmaceutical Dosage Forms” (MYREXIS, INC., priority 2009, published 2012):
# Experiments:
# [1] = test system: BT-474 HER2+ breast cancer; assay: BT-474 HER2+ breast cancer xenograft; type: in vivo, mice; settings: 200 mg/kg oral, daily for 70 days
# [2] = test system: NCI-N87 Her2+ gastric cancer; assay: NCI-N87 (Her2+) gastric cancer xenograft in athymic nude mice; type: in vivo; settings: for TGI (tumor growth inhibition): daily for 21 days
# HT-29 colon cancer = HT-29 colon cancer xenograft; type: in vivo, mice; settings: 200 mg/kg oral, 5-days-on/2-days-off, after 3 cycles
# [3] = Phase I clinical trial, dose limiting toxicities; type: in vivo, human; settings: 50 to 340 mg/m^2 oral, 1 to 13 (28-day) cycles
# Description: A human clinical study was initiated at a starting dose of 50 mg/m^2. Subjects had recurrent cancer refractory to available systemic therapy. Compound 1 was administered daily by mouth in tablet form for 21 consecutive days in a 28 day cycle to each enrolled subject. For determination of drug levels in humans, plasma was collected prior to drug administration and 0.5, 1, 2, 3, 4, 6, 8, and 24 hours post-dosing on cycle 1 day 1, and cycle 1 day 21. Plasma was collected pre-dose only for cycle 1 day 8. Peripheral blood mononuclear cells (PBMCs) were collected prior to drug administration, and typically 8 and 24 hours post-dose on cycle 1 day 1 and cycle 1 day 21 in order to quantify Hsp70 protein levels as an exploratory biomarker. Patients were men and women with metastatic cancer, ranged in age from 45 to 85 years, and received doses ranging from 50 mg/m^2 to 340 mg/m^2, with a total daily dose of 100-740 mg (Tables 2A and 2B).
# [4] = Plasma pharmacokinetics in N-87 tumor-bearing nude mice; type: in vivo; settings: mouse, 200 mg/kg single dose, median values (n = 6)
# Description: (§1) Xenografted mice bearing N-87 tumors (median volume ˜425 mm^3) were given a single oral dose of Compound 1 (200 mg/kg). Blood, tumor and liver samples (n=6) were collected at 0.25, 0.5, 1, 2, 4, 8, 12, 24, 36 and 48 h post-dose and used to determine Compound 1 concentrations in the plasma and Hsp70 RNA levels in tumor and liver samples (See FIG. 6). Hsp70 RNA levels were determined by qRT-PCR.
# Colo205 colon cancer = Colo205 colon cancer xenograft; type: in vivo, mice; settings: daily for 21 days
# [5] = test system: NCI-H460 non-small cell lung cancer; assay: NCI-H460 non-small cell lung cancer xenograft; type: in vivo, mice; settings: 200 mg/kg oral, daily for 21 days
# in vivo = settings: female, Hsd:athymic nude-Foxn1^nu, mouse, po
# Description: The efficacy of Compound 1 was compared to that of SNX-5422 (Serenex, Pfizer, Inc.) on the growth of NCI-N87 (Her2+) human gastric cancer cells as a xenograft in athymic nude mice model. Animals were dosed with either 200 mg/kg of Compound 1 on days 1 through 21 or 40 mg/kg of SNX-5422 thrice weekly for three weeks. Tumor volumes and body weights were determined from Days 1 to 39.
# Five million NCI-N87 cells were implanted subcutaneously in the right flank of female nude mice (Hsd:athymic nude-Foxn1^nu). When the median tumor volume was approximately 123 mm^3, mice were randomized into three cohorts of ten animals. One cohort was dosed orally with vehicle, one cohort was dosed orally with Compound 1 (200 mg/kg) formulated in vehicle, and one cohort was dosed orally with SNX-5422 (40 mg/kg) formulated in dimethylacetamide/polyethylene glycol 300. Vehicle and Compound 1 were administered on days 1-21 and SNX-5422 was administered thrice weekly on Days 1, 3, 5, 8, 10, 12, 15, 17 and 19. The mice were observed daily for mortality and signs of toxicity.
# [6] = test system: Hsp70 protein levels in PBMCs; assay: Hsp70 protein levels in PBMCs of patients (ELISA); type: in vivo, human; settings: 8 hours after the first dose, sustained on day 8 and day 22
# Description: A human clinical study was initiated at a starting dose of 50 mg/m^2. Subjects had recurrent cancer refractory to available systemic therapy. […] For determination of drug levels in humans, plasma was collected prior to drug administration and 0.5, 1, 2, 3, 4, 6, 8, and 24 hours post-dosing on cycle 1 day 1, and cycle 1 day 21. Plasma was collected pre-dose only for cycle 1 day 8.
# Hsp70 protein levels were determined by an ELISA with a Hsp 70 ELISA kit (catalog #EKS-700B, Assay Designs, Stressgen, Ann Arbor, Mich.) as per the manufacturer's protocol.
# [7] = test system: NCI-H69 small cell lung cancer; assay: NCI-H69 small cell lung cancer xenograft; type: in vivo, mice; settings: 200 mg/kg oral, daily for 27 days
# [8] = test system: multiple murine xenograft models; assay: Murine xenograft models, summary across models; type: in vivo, mice
# Hsp70 RNA = Hsp70 RNA induction in liver and tumor of N-87 xenografted mice (qRT-PCR); type: in vivo; settings: single oral dose 200 mg/kg
# Description: as §1
smiles,measurement,setting,value
"C[C@H](O)C(=O)N1CCC(CCn2c(Sc3cc4c(cc3Br)OCO4)nc3c(N)ncnc32)CC1 [Compound 1, (2S)-1-[4-(2-{6-amino-8-[(6-bromo-1,3-benzodioxol-5-yl)thio]-9H-purin-9-yl}ethyl)piperidin-1-yl]-1-oxopropan-2-ol]",tumor regression,[1],17% regression
same,TGI (tumor growth inhibition),"[2]; 100 mg/kg oral, Day 21, p = 0.003",82% TGI (p = 0.003) Day 21
same,TGI (tumor growth inhibition),[2]; 125 mg/kg oral,100% TGI (125 mg/kg)
same,tumor regression,"[2]; 200 mg/kg oral, daily for 21 days (50, 75, 125, 200 mg/kg study)",50% regression (200 mg/kg);
same,TGI (tumor growth inhibition),HT-29 colon cancer,68% TGI after 3 cycles
same,dose limiting toxicities,[3],No dose limiting toxicities have been reported to date
same,Cmax,[4]; oral,21800 ng/mL
same,AUC(0-t),"[4]; oral, read-out: AUC(0-24)",136 µg·h/mL
same,Tmax,[4]; po,4 h
same,half-life,[4]; po,288 min
same,TGI (tumor growth inhibition),"Colo205 colon cancer; 150 mg/kg oral, p = 0.3",72% TGI (p = 0.3) 150 mg/kg;
same,TGI (tumor growth inhibition),"Colo205 colon cancer; 200 mg/kg oral, p = 0.03",87% TGI (p = 0.03) 200 mg/kg
same,"time to tumor volume 1,500 mm^3",[5]; p = 0.006,extended
same,TGI (tumor growth inhibition),[5]; p = 0.05,61%
same,"treated mice with tumors <1,500 mm^3",[5]; compared to 1/10 for vehicle arm,4/8 treated mice have tumors
same,MTD,in vivo,200 mg/kg
same,Hsp70 levels in protein extracts derived from PBMCs,[6],showed an increase
same,"time to tumor volume 1,500 mm^3",[7]; p = 0.01,"Extended time to 1,500 mm^3"
same,"treated mice with tumors <1,500 mm^3",[7]; compared to 2/9 for vehicle arm,(p = 0.01); 8/10 treated mice
same,"tumor regression, maximum over models","[8]; 200 mg/kg oral, various xenograft models",up to 50%
same,weight loss of animals,[8]; xenografted mice dosed orally with Compound 1,no significant weight loss
same,Hsp70 RNA induction in liver,Hsp70 RNA; 4 hours post-dose,~70 fold
same,Hsp70 RNA induction in tumor tissue,Hsp70 RNA; 4 hours post-dose,~110 fold
same,time at which Hsp70 RNA induction reverts to baseline,Hsp70 RNA; post-dose,≤ 12 h
